We go through 27 molecules from patent US20240368104A1, “Novel Dialkoxynaphtho[2,3-C]Furan-1(3H)-One Derivatives and Pharmaceutical Composition For Preventing or Treating Respiratory Disease or SARS-COV-2 Infection Disease, Comprising Same” (priority 2021, published 2024).

In series [1] the test system is SARS-COV-2. In words: microbe, parasite or virus in culture. The format is cell-based. More on the design: SI (Selectivity Index, CC50/IC50): unit not given here. The settings on record: for SI (Selectivity Index, CC50/IC50): SARS-COV-2, values >50 assumed to be 50; for IC50: read-out: SARS-COV-2 inhibition (IC50).
A short description of series [2]: in vitro. The conditions noted are these: African green monkey.
Setting [3] is: Severe acute respiratory syndrome coronavirus 2, Vero cells, 24 hours infection.
The mark [4] stands for this setting: Severe acute respiratory syndrome coronavirus 2, Vero, 24 h.

Read-outs that look alike come from different tables or passages of the source.

As to `COc1cc2cc3c(c(-c4ccc5ncc(C)cc5c4)c2cc1OC)C(=O)OC3` [Example 120, 6,7-dimethoxy-9-(3-methylquinolin-6-yl)naphtho[2,3-c]furan-1(3H)-one], the “SI (Selectivity Index, CC50/IC50)” value in series [1] stood at 12.07. Besides, in series [1] (setting [3]), the IC50 (as a rule, the point on the concentration scale where inhibition reaches its midpoint) was 4.14 µM. In series [2], this molecule had a CC50 of over 50 µM.

For the molecule `COc1ncc(-c2c3c(cc4cc(OC)c(OC)cc24)COC3=O)cn1` [Example 26, 6,7-dimethoxy-9-(2-methoxypyrimidin-5-yl)naphtho[2,3-c]furan-1(3H)-one], the “SI (Selectivity Index, CC50/IC50)” value in series [1] stood at 9.52. Further, the IC50 in series [1] (setting [3]) amounted to 5.25 µM. Also, the CC50 in series [2] is over 50 µM.

In the case of `COc1cc2cc3c(c(N4CCN(CCO)CC4)c2cc1OC)C(=O)OC3` [Example 144, 9-(4-(2-hydroxyethyl)piperazin-1-yl)-6,7-dimethoxynaphtho[2,3-c]furan-1(3H)-one], in series [1], the “SI (Selectivity Index, CC50/IC50)” value was found to be 1.0. In addition, the IC50 in series [1] (setting [3]) was over 50 µM. This molecule gave a CC50 in series [2] of over 50 µM.

For `COc1cc2c(OC)c3c(c(-c4ccc(N5CCOCC5)nc4)c2cc1OC)COC3=O` [Example 267, 6,7,9-trimethoxy-4-(6-morpholinopyridin-3-yl)naphtho[2,3-c]furan-1(3H)-one], in series [1], the “SI (Selectivity Index, CC50/IC50)” value is given as 1.00. For the same molecule, the IC50 in series [1] (setting [3]) is over 50 µM. The CC50 in series [2] is over 50 µM.

As for `CCN(C)c1ccc(-c2c3c(cc4cc(OC)c(OC)cc24)COC3=O)cc1` [Example 248, 9-(4-(ethyl(methyl)amino)phenyl)-6,7-dimethoxynaphtho[2,3-c]furan-1(3H)-one], the “SI (Selectivity Index, CC50/IC50)” value in series [1] turned out to be 344.5. Moreover, the IC50 in series [1] (setting [3]) was under 0.098 µM. In series [2], the CC50 was over 50 µM.

With `COc1cc2cc3c(c(-c4cnc(N(C)c5ccc(C)c(C)c5)nc4)c2cc1OC)C(=O)OC3` [Example 109, 9-(2-((3,4-dimethylphenyl)(methyl)amino)pyrimidin-5-yl)-6,7-dimethoxynaphtho[2,3-c]furan-1(3H)-one], the “SI (Selectivity Index, CC50/IC50)” value in series [1] is 18.73. In series [1] (setting [3]), the IC50 came to 2.67 µM. The same molecule registered a CC50 in series [2] of over 50 µM.

Take `COc1cc2cc3c(c(-c4ccc(-c5c(OC)ncnc5OC)cc4)c2cc1OC)C(=O)OC3` [Example 157, 9-(4-(4,6-dimethoxypyrimidin-5-yl)phenyl)-6,7-dimethoxynaphtho[2,3-c]furan-1(3H)-one]: in series [1], the “SI (Selectivity Index, CC50/IC50)” value was found to be 1.0. Further, the IC50 in series [1] (setting [3]) is over 50 µM. The molecule also displayed a CC50 in series [2] of over 50 µM.

In the case of `CCCCN(C)c1ccc(-c2c3c(cc4cc(OC)c(OC)cc24)COC3=O)cn1` [Example 180, 9-(6-(butyl(methyl)amino)pyridin-3-yl)-6,7-dimethoxynaphtho[2,3-c]furan-1(3H)-one], in series [1], the “SI (Selectivity Index, CC50/IC50)” value was 73.59. Further, in series [1] (setting [3]), the IC50 worked out at 0.68 µM. Besides, in series [2], the CC50 was over 50 µM.

With `COc1cc2cc3c(c(N4CCN(c5ncc(Br)cn5)CC4)c2cc1OC)C(=O)OC3` [Example 131, 9-(4-(5-bromopyrimidin-2-yl)piperazin-1-yl)-6,7-dimethoxynaphtho[2,3-c]furan-1(3H)-one], the “SI (Selectivity Index, CC50/IC50)” value in series [1] amounted to 1.44. Also, the IC50 in series [1] (setting [3]) came to 34.6 µM. This molecule gave a CC50 in series [2] of over 50 µM.

For the molecule `COc1cc2cc3c(c(-c4cnc(N5CC(C)CC(C)C5)nc4)c2cc1OC)C(=O)OC3` (stereo not drawn) [Example 57, 9-(2-(3,5-dimethylpiperidin-1-yl)pyrimidin-5-yl)-6,7-dimethoxynaphtho[2,3-c]furan-1(3H)-one], in series [1], the “SI (Selectivity Index, CC50/IC50)” value was 12.07. Further, the IC50 in series [1] (setting [3]) was determined as 4.14 µM. Moreover, in series [2], the CC50 was over 50 µM.

For `COc1cc2cc3c(c(-c4ccc5c(CN6CCOCC6)c[nH]c5c4)c2cc1OC)C(=O)OC3.Cl` [Example 203, 6,7-dimethoxy-9-(3-(morpholinomethyl)-1H-indol-6-yl)naphtho[2,3-c]furan-1(3H)-one], the “SI (Selectivity Index, CC50/IC50)” value in series [1] amounted to 8.39. Also, the IC50 in series [1] (setting [4]) amounted to 3.54 µM. The CC50 in series [2] amounted to 29.7 µM.

As to `COc1cc2cc3c(c(-c4ccc5nccc(O)c5c4)c2cc1OC)C(=O)OC3` [Example 117, 9-(4-hydroxyquinolin-6-yl)-6,7-dimethoxynaphtho[2,3-c]furan-1(3H)-one], the “SI (Selectivity Index, CC50/IC50)” value in series [1] was 1.0. Also, the IC50 in series [1] (setting [3]) was over 50 µM. Also, the CC50 in series [2] was over 50 µM.

Turning to `COc1cc2cc3c(c(-c4cc5c(cc4OP(=O)(NCCN4CCOCC4)Oc4ccccc4)OCO5)c2cc1OC)C(=O)OC3` (stereo not drawn) [Example 279, 6-(6,7-dimethoxy-3-oxo-1,3-dihydronaphtho[2,3-c]furan-4-yl)benzo[d][1,3]dioxol-5-yl phenyl (2-morpholinoethyl)phosphoramidate], the “SI (Selectivity Index, CC50/IC50)” value in series [1] was 8.21. For the same molecule, the IC50 in series [1] (setting [4]) stood at 6.09 µM. The same molecule returned a CC50 in series [2] of over 50 µM.

For the molecule `COc1cc2cc3c(c(-c4cnc(N5CCOCC5)nc4)c2cc1OC)C(=O)OC3` [Example 51, 6,7-dimethoxy-9-(2-morpholinopyrimidin-5-yl)naphtho[2,3-c]furan-1(3H)-one], the “SI (Selectivity Index, CC50/IC50)” value in series [1] was 34.12. Further, the IC50 in series [1] (setting [3]) came to 1.47 µM. In series [2], the CC50 is over 50 µM.

Consider `COc1cc2cc3c(c(-c4ccc(N(C)[C@H]5CCc6c(cccc6OC)C5)nc4)c2cc1OC)C(=O)OC3` [Example 164, (S)-6,7-dimethoxy-9-(6-((5-methoxy-1,2,3,4-tetrahydronaphthalen-2-yl)(methyl)amino)pyridin-3-yl)naphtho[2,3-c]furan-1(3H)-one], for which, in series [1], the “SI (Selectivity Index, CC50/IC50)” value is 39.02. In addition, the IC50 in series [1] (setting [3]) stood at 1.28 µM. This molecule also registered a CC50 in series [2] of over 50 µM.

On to `COc1cc2cc3c(c(-c4ccc(N5CCc6sccc6C5)nc4)c2cc1OC)C(=O)OC3` [Example 156, 9-(6-(6,7-dihydrothien[3,2-c]pyridin-5 (4H)-yl)pyridin-3-yl)-6,7-dimethoxynaphtho[2,3-c]furan-1(3H)-one], for which the “SI (Selectivity Index, CC50/IC50)” value in series [1] is recorded as 48.93. For the same molecule, the IC50 in series [1] (setting [3]) is 1.02 µM. The molecule further displayed a CC50 in series [2] of over 50 µM.

Regarding `CCN(c1ccc(-c2c3c(cc4cc(OC)c(OC)cc24)COC3=O)cn1)c1ncn(CC)n1` [Example 207, 9-(6-(ethyl(1-ethyl-1H-1,2,4-triazol-3-yl)amino)pyridin-3-yl)-6,7-dimethoxynaphtho[2,3-c]furan-1(3H)-one], in series [1], the “SI (Selectivity Index, CC50/IC50)” value is 7.57. Also, in series [1] (setting [3]), the IC50 stood at 6.6 µM. Further, the CC50 in series [2] is over 50 µM.

As for `COc1cc2cc3c(c(-c4cnc(N(C)[C@H]5CCc6c(cccc6OC)C5)nc4)c2cc1OC)C(=O)OC3.Cl` [Example 96, (S)-6,7-dimethoxy-9-(2-((5-methoxy-1,2,3,4-tetrahydronaphthalen-2-yl)(methyl)amino)pyrimidin-5-yl)naphtho[2,3-c]furan-1(3H)-one hydrochloride], in series [1], the “SI (Selectivity Index, CC50/IC50)” value worked out at 27.11. Also, the IC50 in series [1] (setting [4]) stood at 1.84 µM. This molecule registered a CC50 in series [2] of over 50 µM.

As to `COc1cc2cc3c(c(-c4cc(C)nc5c(F)cccc45)c2cc1OC)C(=O)OC3` [Example 134, 9-(8-fluoro-2-methylquinolin-4-yl)-6,7-dimethoxynaphtho[2,3-c]furan-1(3H)-one], the “SI (Selectivity Index, CC50/IC50)” value in series [1] came to 1.0. Moreover, in series [1] (setting [3]), the IC50 is over 50 µM. Besides, in series [2], the CC50 was over 50 µM.

In the case of `COc1cc2cc3c(c(-c4cnc(N5CCC[C@H]5C(N)=O)nc4)c2cc1OC)C(=O)OC3` [Example 49, (S)-1-(5-(6,7-dimethoxy-3-oxo-1,3-dihydronaphtho[2,3-c]furan-4-yl)pyrimidin-2-yl) pyrrolidin-2-carboxamide], in series [1], the “SI (Selectivity Index, CC50/IC50)” value turned out to be 1.00. The IC50 in series [1] (setting [3]) is over 50 µM. This molecule returned a CC50 in series [2] of over 50 µM.

Regarding `COc1cc2cc3c(c(-c4ccnc5c(OC)cccc45)c2cc1OC)C(=O)OC3` [Example 140, 6,7-dimethoxy-9-(8-methoxyquinolin-4-yl)naphtho[2,3-c]furan-1(3H)-one], the “SI (Selectivity Index, CC50/IC50)” value in series [1] was found to be 1.0. For the same molecule, in series [1] (setting [3]), the IC50 is over 50 µM. This molecule also displayed a CC50 in series [2] of over 50 µM.

Take `COc1cc2cc3c(c(N4CCN(CCN5CCOCC5)CC4)c2cc1OC)C(=O)OC3` [Example 143, 6,7-dimethoxy-9-(4-(2-morpholinoethyl)piperazin-1-yl)naphtho[2,3-c]furan-1(3H)-one]: the “SI (Selectivity Index, CC50/IC50)” value in series [1] was determined as 1.0. In addition, the IC50 in series [1] (setting [3]) was over 50 µM. In addition, the CC50 in series [2] was over 50 µM.

For the molecule `COc1cc2cc3c(c(-c4ccc(C(=O)C(F)(F)F)cc4)c2cc1OC)C(=O)OC3` [Example 210, 6,7-dimethoxy-9-(4-(2,2,2-trifluoroacetyl)phenyl)naphtho[2,3-c]furan-1(3H)-one], in series [1], the “SI (Selectivity Index, CC50/IC50)” value is 4.91. In addition, the IC50 in series [1] (setting [4]) came to 10.2 µM. The CC50 in series [2] was over 50 µM.

As to `COc1cc2cc3c(c(-c4cnc(N(C)CCC5OCCO5)nc4)c2cc1OC)C(=O)OC3` [Example 158, 9-(2-((2-(1,3-dioxolan-2-yl)ethyl)(methyl)amino)pyrimidin-5-yl)-6,7-dimethoxynaphtho[2,3-c]furan-1(3H)-one], the “SI (Selectivity Index, CC50/IC50)” value in series [1] is on record as 7.26. For the same molecule, the IC50 in series [1] (setting [3]) was 6.89 µM. Moreover, the CC50 in series [2] is over 50 µM.

For the molecule `COc1cc2cc3c(c(-c4cc5c(cc4OP(=O)(NCCN4CCOCC4)c4ccccc4)OCO5)c2cc1OC)C(=O)OC3` (stereo not drawn) [Example 280, 6-(6,7-dimethoxy-3-oxo-1,3-dihydronaphtho[2,3-c]furan-4-yl)benzo[d][1,3]dioxol-5-yl N-(2-morpholinoethyl)-P-phenylphosphoramidate], the “SI (Selectivity Index, CC50/IC50)” value in series [1] amounted to 25.56. In addition, the IC50 in series [1] (setting [4]) turned out to be 1.96 µM. For the same molecule, the CC50 in series [2] was over 50 µM.

Turning to `COc1cc2cc3c(c(N4C[C@@H](C)O[C@@H](C)C4)c2cc1OC)C(=O)OC3` [Example 2, 9-((2S,6R)-2,6-dimethylmorpholino)-6,7-dimethoxynaphtho[2,3-c]furan-1(3H)-one], the “SI (Selectivity Index, CC50/IC50)” value in series [1] stood at 1.00. Also, the half-inhibitory concentration (IC50) in series [1] (setting [3]) is over 50 µM. This molecule also gave a CC50 in series [2] of over 50 µM.

Regarding `CCN(CC)c1ccc(-c2c3c(cc4cc(OC)c(OC)cc24)COC3=O)cn1` [Example 160, 9-(6-(diethylamino)pyridin-3-yl)-6,7-dimethoxynaphtho[2,3-c]furan-1(3H)-one], the “SI (Selectivity Index, CC50/IC50)” value in series [1] turned out to be 60.45. In addition, in series [1] (setting [3]), the IC50 was found to be 0.83 µM. The molecule also returned a CC50 in series [2] of over 50 µM.
